Data: US20150352108A1, “AMINO-PYRIMIDINE COMPOUNDS AS INHIBITORS OF TBK1 AND/OR IKK EPSILON” (Alzheimer's Institute of America, priority 2009, published 2015)
pIC50: −log10 of the molar value.

Molecular target: T1, IKKε (Homo sapiens, UniProt Q14164)
T1 construct: His-tag; made in house; host or cells: Sf9 insect cells
T1 sequence (Q14164 1-716): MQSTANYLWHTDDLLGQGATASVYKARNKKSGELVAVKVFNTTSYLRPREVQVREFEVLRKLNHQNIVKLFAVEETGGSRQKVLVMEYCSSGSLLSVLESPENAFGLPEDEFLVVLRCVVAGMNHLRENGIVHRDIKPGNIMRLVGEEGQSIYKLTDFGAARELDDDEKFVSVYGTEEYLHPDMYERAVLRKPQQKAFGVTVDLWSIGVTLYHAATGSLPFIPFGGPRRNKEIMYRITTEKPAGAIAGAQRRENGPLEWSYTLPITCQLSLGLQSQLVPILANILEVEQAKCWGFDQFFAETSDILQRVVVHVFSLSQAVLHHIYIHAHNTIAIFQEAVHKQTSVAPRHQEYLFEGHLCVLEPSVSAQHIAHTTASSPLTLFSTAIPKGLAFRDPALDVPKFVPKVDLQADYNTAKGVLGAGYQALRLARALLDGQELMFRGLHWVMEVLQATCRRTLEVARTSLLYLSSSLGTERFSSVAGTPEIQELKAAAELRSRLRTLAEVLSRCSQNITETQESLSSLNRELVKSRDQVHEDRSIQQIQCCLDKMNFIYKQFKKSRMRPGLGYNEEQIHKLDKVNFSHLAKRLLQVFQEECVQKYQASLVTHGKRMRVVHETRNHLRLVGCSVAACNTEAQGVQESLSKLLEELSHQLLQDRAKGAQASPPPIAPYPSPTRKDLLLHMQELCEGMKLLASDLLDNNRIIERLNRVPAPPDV
Experiment: In-vitro IKKε kinase assay ([γ33]ATP filter-plate)
Format: biochemical
Conditions: text bins; read-out: IC50 for inhibition of the kinase activity of IKKε
How it was run: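 His-tagged IKKε and TBK1 from Sf9 cells were assayed with myelin basic protein or casein and [γ33]ATP at 2×Km ATP (32 μM for IKKε, 60 μM for TBK1). Enzyme was 0.1 or 0.015 μg/ml for IKKε and 0.1 or 0.02 μg/ml for TBK1 (normal/sensitized). Reactions ran 30-45 min, were filter-captured, scintillation-counted, and normalized to DMSO after background subtraction.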

| pIC50 | Structure (SMILES) |
| --- | --- |
| 6.30 to 7.30 | N#Cc1cc(-c2ccnc(Nc3ccc(N4CCOCC4)cc3)n2)ccc1NC(=O)Cc1ccccc1 [compound 435, N-[2-cyano-4-(2-{[4-(morpholin-4-yl)phenyl]amino}pyrimidin-4-yl)phenyl]-2-phenylacetamide] |
| 7.30 to 8.30 | N#Cc1cc(-c2ccnc(Nc3ccc(N4CCOCC4)cc3)n2)ccc1NC(=O)C(F)(F)C(F)F [compound 441, N-[2-Cyano-4-(2-{[4-(morpholin-4-yl)phenyl]amino}pyrimidin-4-yl)phenyl]-2,2,3,3-tetrafluoropropanamide] |
| 7.30 to 8.30 | CCNS(=O)(=O)c1ccc(Nc2nccc(-c3ccc(NC(=O)C(C)C)c(C#N)c3)n2)cc1 [compound 449, N-[2-cyano-4-(2-{[4-(ethylsulfamoyl)phenyl]amino}pyrimidin-4-yl)phenyl]-2-methylpropanamide] |
| 6.30 to 7.30 | CC(C)C(=O)Nc1ccc(-c2ccnc(Nc3ccc(CCN4CCNCC4)cc3)n2)cc1C#N [compound 451, N-{2-cyano-4-[2-({4-[2-(piperazin-1-yl)ethyl]phenyl}amino)pyrimidin-4-yl]phenyl}-2-methylpropanamide] |
| 6.30 to 7.30 | CC(C)C(=O)Nc1ccc(-c2ccnc(Nc3ccc(C(C)CN4CCOCC4)cc3)n2)cc1C#N (stereo not drawn) [compound 452, N-{2-cyano-4-[2-({4-[1-(morpholin-4-yl)propan-2-yl]phenyl}amino)pyrimidin-4-yl]phenyl}-2-methylpropanamide] |
| 7.30 to 8.30 | CC(C)C(=O)Nc1ccc(-c2ccnc(Nc3ccc(C(C)C(=O)N4CCOCC4)cc3)n2)cc1C#N (stereo not drawn) [compound 453, N-{2-cyano-4-[2-({4-[1-(morpholin-4-yl)-1-oxopropoan-2-yl]phenyl}amino)pyrimidin-4-yl]phenyl}-2-methylpropanamide] |
| 7.30 to 8.30 | CCN(CC)CCc1ccc(Nc2nccc(-c3ccc(NC(=O)C(C)C)c(C#N)c3)n2)cc1 [compound 454, N-{2-cyano-4-[2-({4-[2-(diethylamino)ethyl]phenyl}amino)pyrimidin-4-yl]phenyl}-2-methylpropanamide] |
| 7.30 to 8.30 | CC(C)C(=O)Nc1ccc(-c2ccnc(Nc3ccc(CCNCCO)cc3)n2)cc1C#N [compound 455, N-(2-cyano-4-{2-[(4-{2-[(2-hydroxyethyl)amino]ethyl}phenyl)amino]pyrimidin-4-yl}phenyl)-2-methylpropanamide] |
| 6.30 to 7.30 | CC(C)(COc1ccc(-c2ccnc(Nc3ccc(N4CCOCC4)cc3)n2)cc1C#N)C(=O)N1CCOCC1 [compound 459, 2-[2,2-dimethyl-3-(morpholin-4-yl)-3-oxopropoxy]-5-(2-{[4-(morpholin-4-yl)phenyl]amino}pyrimidin-4-yl)benzonitrile] |
| 7.30 to 8.30 | CC(C)NCCc1ccc(Nc2nccc(-c3ccc(NC(=O)C(C)C)c(C#N)c3)n2)cc1 [compound 462, N-{2-cyano-4-[2-({4-[2-(propan-2-ylamino)ethyl]phenyl}amino)pyrimidin-4-yl]phenyl}-2-methylpropanamide] |
| 7.30 to 8.30 | CC(C)C(=O)Nc1ccc(-c2ccnc(Nc3ccc(CCO)cc3)n2)cc1C#N [compound 464, N-[2-cyano-4-(2-{[4-(2-hydroxyethyl)phenyl]amino}pyrimidin-4-yl)phenyl]-2-methylpropanamide] |
| 7.30 to 8.30 | CC(=O)N1CCC(COc2ccc(-c3ccnc(Nc4ccc(N5CCOCC5)cc4)n3)cc2C#N)C1 (stereo not drawn) [compound 469, 2-[(1-acetylpyrrolidin-3-yl)methoxy]-5-(2-{[4-(morpholin-4-yl)phenyl]amino}pyrimidin-4-yl)benzonitrile] |
| 6.30 to 7.30 | N#Cc1cc(-c2ccnc(Nc3ccc(N4CCOCC4)cc3)n2)ccc1OCCC1CCNCC1 [compound 472, 5-(2-{[4-(morpholin-4-yl)phenyl]amino}pyrimidin-4-yl)-2-[2-(piperidin-4-yl)ethoxy] benzonitrile] |
| 6.30 to 7.30 | N#Cc1cc(-c2ccnc(Nc3ccc(N4CCOCC4)cc3)n2)ccc1OC1CN(CCO)C1 [compound 474, 2-{[1-(2-hydroxyethyl)azetidin-3-yl]oxy}-5-(2-{[4-(morpholin-4-yl)phenyl]amino}pyrimidin-4-yl)benzonitrile] |
| 6.30 to 7.30 | COc1cc(Nc2nccc(-c3ccc(OC4CCN(C(=O)CO)C4)c(C#N)c3)n2)ccc1N1CCC(N2CCN(C)CC2)CC1 (stereo not drawn) [compound 513, 2-{[1-(hydroxyacetyl)pyrrolidin-3-yl]oxy}-5-[2-({3-methoxy-4-[4-(4-methylpiperazin-1-yl)piperidin-1-yl]phenyl}amino)pyrimidin-4-yl]benzonitrile] |
| 6.30 to 7.30 | COc1cc(Nc2nccc(-c3ccc(OC4CCOCC4)c(C#N)c3)n2)ccc1N1CCC(N2CCN(C)CC2)CC1 [compound 514, 5-[2-({3-methoxy-4-[4-(4-methylpiperazin-1-yl)piperidin-1-yl]phenyl}amino)pyrimidin-4-yl]-2-(tetrahydro-2H-pyran-4-yloxy)benzonitrile] |
| > 8.30 | COC1CCN(c2cccc(Nc3nccc(-c4ccc(O[C@@H]5CCN(C(=O)CO)C5)c(C#N)c4)n3)c2)C1 (stereo partly drawn) [compound 546, 2-{[(3R)-1-(Hydroxyacetyl)pyrrolidin-3-yl]oxy}-5-(2-{[3-(3-methoxypyrrolidin-1-yl)phenyl]amino}pyrimidin-4-yl)benzonitrile] |
| > 8.30 | N#Cc1cc(-c2ccnc(Nc3cccc(-c4cccnc4)c3)n2)ccc1OC1CCOCC1 [compound 549, 5-(2-{[3-(Pyridin-3-yl)phenyl]amino}pyrimidin-4-yl)-2-(tetrahydro-2H-pyran-4-yloxy)benzonitrile] |
| > 8.30 | N#Cc1cc(-c2ccnc(Nc3ccc(-c4cccnc4)cc3)n2)ccc1OC1CCOCC1 [compound 550, 5-(2-{[4-(Pyridin-3-yl)phenyl]amino}pyrimidin-4-yl)-2-(tetrahydro-2H-pyran-4-yloxy)benzonitrile] |
| > 8.30 | N#Cc1cc(-c2ccnc(Nc3cccc(-n4ccnc4)c3)n2)ccc1OC1CCOCC1 [compound 560, 5-(2-{[3-(1H-Imidazol-1-yl)phenyl]amino}pyrimidin-4-yl)-2-(tetrahydro-2H-pyran-4-yloxy)benzonitrile] |
| 6.30 to 7.30 | N#Cc1cccc(-c2nc(Nc3ccc(N4CCOCC4)cc3)nc3[nH]cnc23)c1 [compound 562, 3-(2-{[4-(Morpholin-4-yl)phenyl]amino}-3H-purain-6-yl)benzonitrile] |
| > 8.30 | N#Cc1cc(-c2ccnc(Nc3cccc(-c4ccncc4)c3)n2)ccc1OC1CCOCC1 [compound 573, 5-(2-{[3-(Pyridin-4-yl)phenyl]amino}pyrimidin-4-yl)-2-(tetrahydro-2H-pyran-4-yloxy)benzonitrile] |
| > 8.30 | N#Cc1cc(-c2ccnc(Nc3ccc(S(=O)(=O)Nc4nccs4)cc3)n2)ccc1OC1CCOCC1 [compound 575, 4-({4-[3-Cyano-4-(tetrahydro-2H-pyran-4-yloxy)phenyl]pyrimidin-2-yl}amino)-N-(1,3-thiazol-2-yl) benzenesulfonamide] |
| > 8.30 | N#Cc1cc(-c2ccnc(Nc3cccc(Cn4ccnn4)c3)n2)ccc1OC1CCOCC1 [compound 576, 2-(Tetrahydro-2H-pyran-4-yloxy)-5-(2-{[3-(1H-1,2,3-triazol-1-ylmethyl)phenyl]amino}pyrimidin-4-yl)benzonitrile] |
| > 8.30 | N#Cc1cc(-c2ccnc(Nc3ccc(-c4cn[nH]c4)cc3)n2)ccc1OC1CCOCC1 [compound 579, 5-(2-{[4-(1H-Pyrazol-4-yl)phenyl]amino}pyrimidin-4-yl)-2-(tetrahydro-2H-pyran-4-yloxy)benzonitrile] |
| 7.30 to 8.30 | N#Cc1cc(-c2ccnc(Nc3ccc(F)c(F)c3)n2)ccc1O[C@@H]1CCN(C(=O)CO)C1 [compound 582, 5-{2-[(3,4-Difluorophenyl)amino]pyrimidin-4-yl}-2-{[(3R)-1-(hydroxyacetyl)pyrrolidin-3-yl]oxy}benzonitrile] |
| > 8.30 | Cn1cc(-c2ccc(Nc3nccc(-c4ccc(OC5CCOCC5)c(C#N)c4)n3)cc2)cn1 [compound 584, 5-(2-{[4-(1-Methyl-1H-pyrazol-4-yl)phenyl]amino}pyrimidin-4-yl)-2-(tetrahydro-2H-pyran-4-yloxy)benzonitrile] |
| > 8.30 | COc1cc(Nc2nccc(-c3ccc(OCC(C)C)c(C#N)c3)n2)ccc1C(=O)N1CC(OC)C1 [compound 587, 5-[2-({3-Methoxy-4-[(3-methoxyazetidin-1-yl)carbonyl]phenyl}amino)pyrimidin-4-yl]-2-(2-methylpropoxy) benzonitrile] |
| > 8.30 | N#Cc1cc(-c2ccnc(Nc3cccc(NC(=O)NC4CCC(O)CC4)c3)n2)ccc1OC1CCOCC1 (stereo not drawn) [compound 589, 1-[3-({4-[3-Cyano-4-(tetrahydro-2H-pyran-4-yloxy)phenyl]pyrimidin-2-yl}amino)phenyl]-3-(4-hydroxycyclohexyl) urea] |
| > 8.30 | N#Cc1cc(-c2ccnc(Nc3cccc(Cn4cnnc4)c3)n2)ccc1OC1CCOCC1 [compound 595, 2-(Tetrahydro-2H-pyran-4-yloxy)-5-(2-{[3-(4H-1,2,4-triazol-4-ylmethyl)phenyl]amino}pyrimidin-4-yl)benzonitrile] |
